Data as given in PubChem BioAssay AID2060487 (Molecular Pharmacology Branch, DTP, NCI, 2025).

System: 997537-175-T-J1-PDC complex spheroid viability
Test: Anticancer human tumor 997537-175-T-J1-PDC patient-derived colon adenocarcinoma cell line growth inhibition [GQUAD]
Conditions: for IC50: curve of first compound; for viability, T/C: stronger effect = lower value
Summary of the method: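 Multi-cell-type spheroids of tumor cells with HUVEC and mesenchymal stem cells, treated with drug combinations. Concentrations descend in half-log steps from near clinical Cmax, or from 10 microM where Cmax is unknown; viability read-out.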

[1] = second compound 0.0316 µM, first compound 0.0316 µM
[2] = second compound 0.0316 µM, first compound 0.1 µM
[3] = second compound 0.0316 µM, first compound 0.316 µM
[4] = second compound 0.0316 µM, first compound 1 µM
[5] = second compound 0.0316 µM, first compound 3.16 µM
[6] = second compound 0.0316 µM, first compound 10 µM
[7] = second compound 0.1 µM, first compound 0.0316 µM
[8] = second compound 0.1 µM, first compound 0.1 µM
[9] = second compound 0.1 µM, first compound 0.316 µM
[10] = second compound 0.1 µM, first compound 1 µM
[11] = second compound 0.1 µM, first compound 3.16 µM
[12] = second compound 0.1 µM, first compound 10 µM
[13] = second compound 0.316 µM, first compound 0.0316 µM
[14] = second compound 0.316 µM, first compound 0.1 µM
[15] = second compound 0.316 µM, first compound 0.316 µM
[16] = second compound 0.316 µM, first compound 1 µM
[17] = second compound 0.316 µM, first compound 3.16 µM
[18] = second compound 0.316 µM, first compound 10 µM
[19] = second compound 1 µM, first compound 0.0316 µM
[20] = second compound 1 µM, first compound 0.1 µM
[21] = second compound 1 µM, first compound 0.316 µM
[22] = second compound 1 µM, first compound 1 µM
[23] = second compound 1 µM, first compound 3.16 µM
[24] = second compound 1 µM, first compound 10 µM
[25] = second compound 3.16 µM, first compound 0.0316 µM
[26] = second compound 3.16 µM, first compound 0.1 µM
[27] = second compound 3.16 µM, first compound 0.316 µM
[28] = second compound 3.16 µM, first compound 1 µM
[29] = second compound 3.16 µM, first compound 3.16 µM
[30] = second compound 3.16 µM, first compound 10 µM
[31] = second compound 10 µM, first compound 0.0316 µM
[32] = second compound 10 µM, first compound 0.1 µM
[33] = second compound 10 µM, first compound 0.316 µM
[34] = second compound 10 µM, first compound 1 µM
[35] = second compound 10 µM, first compound 3.16 µM
[36] = second compound 10 µM, first compound 10 µM
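Also: spheroids exposed to the agents for 7 days.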
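For viability, T/C in this document: 100% = DMSO vehicle control viability.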

Q: For `CC(C)n1c(=O)n(C)c2cnc3cc(F)c(-c4ccc(OCCCN5CCCCC5)nc4)cc3c21` + Cc1[nH]c2ccc(F)cc2c1-c1nc2c3cccnc3c3ncccc3c2[nH]1, which IC50 (second compound 0.0316 µM) is on record?
A: > 10 µM

Q: And the IC50 (second compound 0.1 µM)?
A: > 10 µM

Q: And the IC50 (second compound 0.316 µM)?
A: > 10 µM

Q: And the IC50 (second compound 1 µM)?
A: > 10 µM

Q: And the IC50 (second compound 3.16 µM)?
A: > 10 µM

Q: And the IC50 (second compound 10 µM)?
A: > 10 µM

Q: What about the viability, T/C [1] of the same molecule?
A: 117%

Q: And the viability, T/C [2]?
A: 104%

Q: What about the viability, T/C [3] of the same molecule?
A: 112%

Q: What about the viability, T/C [4] of the same molecule?
A: 98.2%

Q: And the viability, T/C [5]?
A: 113%

Q: What about the viability, T/C [6] of the same molecule?
A: 106%

Q: What about the viability, T/C [7] of the same molecule?
A: 121%

Q: And the viability, T/C [8]?
A: 97.6%

Q: What about the viability, T/C [9] of the same molecule?
A: 97.6%

Q: And the viability, T/C [10]?
A: 95.6%

Q: And the viability, T/C [11]?
A: 108%

Q: What about the viability, T/C [12] of the same molecule?
A: 99.9%

Q: And the viability, T/C [13]?
A: 94.2%

Q: And the viability, T/C [14]?
A: 103%

Q: And the viability, T/C [15]?
A: 88.8%

Q: What about the viability, T/C [16] of the same molecule?
A: 77.9%

Q: What about the viability, T/C [17] of the same molecule?
A: 116%

Q: What about the viability, T/C [18] of the same molecule?
A: 84%

Q: And the viability, T/C [19]?
A: 86.4%

Q: What about the viability, T/C [20] of the same molecule?
A: 109%

Q: And the viability, T/C [21]?
A: 91.1%

Q: What about the viability, T/C [22] of the same molecule?
A: 107%

Q: And the viability, T/C [23]?
A: 112%

Q: And the viability, T/C [24]?
A: 98.8%

Q: And the viability, T/C [25]?
A: 89.3%

Q: What about the viability, T/C [26] of the same molecule?
A: 100%

Q: What about the viability, T/C [27] of the same molecule?
A: 100%

Q: What about the viability, T/C [28] of the same molecule?
A: 93.2%

Q: And the viability, T/C [29]?
A: 98.2%

Q: And the viability, T/C [30]?
A: 90.5%

Q: And the viability, T/C [31]?
A: 81.5%

Q: And the viability, T/C [32]?
A: 79.9%

Q: And the viability, T/C [33]?
A: 95.7%

Q: What about the viability, T/C [34] of the same molecule?
A: 79.9%

Q: And the viability, T/C [35]?
A: 88.9%

Q: And the viability, T/C [36]?
A: 72.5%

Q: `CC1COCCN1c1cc(C2(O)CC3CCC(C2)O3)c2cnn(-c3ccn[nH]3)c2n1` (stereo not drawn) + Cc1[nH]c2ccc(F)cc2c1-c1nc2c3cccnc3c3ncccc3c2[nH]1 was tested. Which IC50 (second compound 0.0316 µM) did it give?
A: 0.303 µM

Q: What about the IC50 (second compound 0.1 µM) of the same molecule?
A: 0.355 µM

Q: What about the IC50 (second compound 0.316 µM) of the same molecule?
A: 0.305 µM

Q: What about the IC50 (second compound 1 µM) of the same molecule?
A: 0.155 µM

Q: And the IC50 (second compound 3.16 µM)?
A: < 0.0316 µM

Q: What about the IC50 (second compound 10 µM) of the same molecule?
A: 0.0746 µM

Q: And the viability, T/C [1]?
A: 74.3%

Q: And the viability, T/C [2]?
A: 56.8%

Q: What about the viability, T/C [3] of the same molecule?
A: 62.4%

Q: What about the viability, T/C [4] of the same molecule?
A: 22.3%

Q: And the viability, T/C [5]?
A: 40.2%

Q: What about the viability, T/C [6] of the same molecule?
A: 56%

Q: What about the viability, T/C [7] of the same molecule?
A: 75.3%

Q: What about the viability, T/C [8] of the same molecule?
A: 59.5%

Q: What about the viability, T/C [9] of the same molecule?
A: 57.9%

Q: And the viability, T/C [10]?
A: 32.7%

Q: What about the viability, T/C [11] of the same molecule?
A: 45.4%

Q: What about the viability, T/C [12] of the same molecule?
A: 52.7%

Q: And the viability, T/C [13]?
A: 78.7%

Q: What about the viability, T/C [14] of the same molecule?
A: 61.9%

Q: And the viability, T/C [15]?
A: 45.5%

Q: And the viability, T/C [16]?
A: 38.6%

Q: What about the viability, T/C [17] of the same molecule?
A: 54%

Q: What about the viability, T/C [18] of the same molecule?
A: 60.4%

Q: And the viability, T/C [19]?
A: 54.7%

Q: And the viability, T/C [20]?
A: 57.6%

Q: And the viability, T/C [21]?
A: 44.9%

Q: What about the viability, T/C [22] of the same molecule?
A: 40.8%

Q: What about the viability, T/C [23] of the same molecule?
A: 38.7%

Q: What about the viability, T/C [24] of the same molecule?
A: 61.4%

Q: And the viability, T/C [25]?
A: 55.1%

Q: And the viability, T/C [26]?
A: 34.3%

Q: What about the viability, T/C [27] of the same molecule?
A: 44%

Q: And the viability, T/C [28]?
A: 29.2%

Q: What about the viability, T/C [29] of the same molecule?
A: 44.5%

Q: What about the viability, T/C [30] of the same molecule?
A: 60.4%

Q: And the viability, T/C [31]?
A: 61.2%

Q: And the viability, T/C [32]?
A: 44.8%

Q: What about the viability, T/C [33] of the same molecule?
A: 42.5%

Q: And the viability, T/C [34]?
A: 43.6%

Q: And the viability, T/C [35]?
A: 31.9%

Q: And the viability, T/C [36]?
A: 41.3%

Q: Which results are given for `CC1COCCN1c1cc(C2(S(C)(=N)=O)CC2)nc(-c2ccnc3[nH]ccc23)n1` (stereo not drawn) + Cc1[nH]c2ccc(F)cc2c1-c1nc2c3cccnc3c3ncccc3c2[nH]1?
A: IC50 (second compound 0.0316 µM): 9.53 µM; IC50 (second compound 0.1 µM): 6.25 µM; IC50 (second compound 0.316 µM): > 10 µM; IC50 (second compound 1 µM): > 10 µM; IC50 (second compound 3.16 µM): 6.51 µM; IC50 (second compound 10 µM): > 10 µM; viability, T/C [1]: 96.7%; viability, T/C [2]: 83.8%; viability, T/C [3]: 76.3%; viability, T/C [4]: 71.9%; viability, T/C [5]: 62.9%; viability, T/C [6]: 47.5%; viability, T/C [7]: 95.8%; viability, T/C [8]: 86.2%; viability, T/C [9]: 82.4%; viability, T/C [10]: 77.6%; viability, T/C [11]: 70.3%; viability, T/C [12]: 37.4%; viability, T/C [13]: 107%; viability, T/C [14]: 73.8%; viability, T/C [15]: 69.7%; viability, T/C [16]: 70%; viability, T/C [17]: 62.3%; viability, T/C [18]: 49.3%; viability, T/C [19]: 80.3%; viability, T/C [20]: 46.2%; viability, T/C [21]: 76.8%; viability, T/C [22]: 94%; viability, T/C [23]: 72.5%; viability, T/C [24]: 60.6%; viability, T/C [25]: 59.7%; viability, T/C [26]: 79.8%; viability, T/C [27]: 66.1%; viability, T/C [28]: 55.8%; viability, T/C [29]: 71%; viability, T/C [30]: 40.4%; viability, T/C [31]: 63.7%; viability, T/C [32]: 76.2%; viability, T/C [33]: 72.2%; viability, T/C [34]: 71.2%; viability, T/C [35]: 64.5%; viability, T/C [36]: 74.8%

Q: Which results are given for `O=C(c1cc(Cc2n[nH]c(=O)c3ccccc23)ccc1F)N1CCN(C(=O)C2CC2)CC1` + Cc1[nH]c2ccc(F)cc2c1-c1nc2c3cccnc3c3ncccc3c2[nH]1?
A: IC50 (second compound 0.0316 µM): > 10 µM; IC50 (second compound 0.1 µM): > 10 µM; IC50 (second compound 0.316 µM): > 10 µM; IC50 (second compound 1 µM): > 10 µM; IC50 (second compound 3.16 µM): > 10 µM; IC50 (second compound 10 µM): > 10 µM; viability, T/C [1]: 99.8%; viability, T/C [2]: 96.1%; viability, T/C [3]: 93.2%; viability, T/C [4]: 81.6%; viability, T/C [5]: 79%; viability, T/C [6]: 102%; viability, T/C [7]: 91.8%; viability, T/C [8]: 95.7%; viability, T/C [9]: 77.1%; viability, T/C [10]: 67.8%; viability, T/C [11]: 89.5%; viability, T/C [12]: 94.1%; viability, T/C [13]: 76.1%; viability, T/C [14]: 103%; viability, T/C [15]: 90%; viability, T/C [16]: 88.5%; viability, T/C [17]: 98.4%; viability, T/C [18]: 94.6%; viability, T/C [19]: 76.9%; viability, T/C [20]: 96.7%; viability, T/C [21]: 73.6%; viability, T/C [22]: 101%; viability, T/C [23]: 106%; viability, T/C [24]: 109%; viability, T/C [25]: 90.7%; viability, T/C [26]: 89.9%; viability, T/C [27]: 100%; viability, T/C [28]: 81.4%; viability, T/C [29]: 94.4%; viability, T/C [30]: 94.4%; viability, T/C [31]: 71.9%; viability, T/C [32]: 84.1%; viability, T/C [33]: 96.7%; viability, T/C [34]: 60.5%; viability, T/C [35]: 79.8%; viability, T/C [36]: 83.6%
